Results on six molecules are retold here after patent US20110172147A1, “NEUROPEPTIDE-2 RECEPTOR (Y-2R) AGONISTS” (priority 2009, published 2011).

The target of one experiment is T1, Y5R (Homo sapiens, UniProt Q15761).
T1 sequence (Q15761 1-445): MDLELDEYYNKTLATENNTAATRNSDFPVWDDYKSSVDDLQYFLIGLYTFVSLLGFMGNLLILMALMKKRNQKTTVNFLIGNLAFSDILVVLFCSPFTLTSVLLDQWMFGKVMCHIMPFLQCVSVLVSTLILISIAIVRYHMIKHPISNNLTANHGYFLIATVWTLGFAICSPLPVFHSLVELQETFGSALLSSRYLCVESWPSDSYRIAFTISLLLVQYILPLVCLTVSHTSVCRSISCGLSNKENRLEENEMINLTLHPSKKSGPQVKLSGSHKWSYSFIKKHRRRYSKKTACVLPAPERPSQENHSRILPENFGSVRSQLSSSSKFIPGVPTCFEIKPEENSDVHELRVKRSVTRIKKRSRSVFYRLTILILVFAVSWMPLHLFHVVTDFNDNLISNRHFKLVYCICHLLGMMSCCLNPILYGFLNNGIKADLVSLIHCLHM
The experiment can be described thus: CaFlux Assay (FLIPR), Y5R. Format: cell-based.

The target in another experiment is T2, hNPY2R (Homo sapiens, UniProt P49146).
T2 sequence (P49146 1-381): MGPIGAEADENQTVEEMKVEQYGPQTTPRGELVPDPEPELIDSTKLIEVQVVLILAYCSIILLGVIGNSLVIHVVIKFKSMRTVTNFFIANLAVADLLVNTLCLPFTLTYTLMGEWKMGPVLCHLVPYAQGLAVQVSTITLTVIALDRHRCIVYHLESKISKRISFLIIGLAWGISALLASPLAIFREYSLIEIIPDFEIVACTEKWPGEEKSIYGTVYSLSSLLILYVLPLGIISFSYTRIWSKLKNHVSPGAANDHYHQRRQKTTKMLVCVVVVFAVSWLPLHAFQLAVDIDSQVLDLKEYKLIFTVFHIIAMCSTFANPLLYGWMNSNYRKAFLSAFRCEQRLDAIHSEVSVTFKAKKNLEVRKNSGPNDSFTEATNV
The experiment can be described thus: CaFlux Assay (FLIPR), Y2R. Also on record: expressed in transfected cells; host or cells: HEK-293 stably transfected with G protein chimera Gαqi9. Format: cell-based. The procedure, abridged:
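HEK-293 cells stably co-expressing chimeric Gαqi9 and the receptor were plated overnight at 37 °C, loaded 1 h at 37 °C with Calcium-3 dye in HBSS/20 mM HEPES/5 mM probenecid, then given compound on FLIPR. Peak fluorescence rise over 100 s, baseline-subtracted, expressed as % of positive-control maximum.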

The mark [1] stands for this setting: FLIPR; read-out: Y5R EC50 (nM) FLIPR.
[2] abbreviates: CaFlux (FLIPR), HEK-293 cells with Gαqi9 and human NPY2 receptor; read-out: Y2R EC50 (nM) FLIPR.

SMILES strings stand for the structures. Like-named read-outs stand apart in the source and are kept apart here. Where only a bound is given, the exact number is not on record here.

Turning to `CCCCCCCCCCCCCCCCCCCC(=O)N[C@@H](CCS(=O)(=O)O)C(=O)N[C@@H](CCS(=O)(=O)O)C(=O)NCCCC[C@H](NC(=O)[C@@H](NC(=O)CCOCCOCCOCCOCCOCCOCCOCCOCCOCCOCCOCCOCCOCCOCCOCCOCCOCCOCCOCCOCCOCCOCCOCCOC)[C@@H](C)CC)C(=O)N1CCN(c2ccc3ncn(CC(=O)N[C@@H](CCCNC(=N)N)C(=O)NC(Cc4c[nH]cn4)C(=O)N[C@@H](Cc4ccc(O)cc4)C(=O)NC(CC(C)C)C(=O)N[C@@H](CC(N)=O)C(=O)NC(Cc4c[nH]c5ccccc45)C(=O)N[C@H](C(=O)N[C@H](C(=O)N[C@@H](CCCNC(=N)N)C(=O)NC(CCC(N)=O)C(=O)N(C)[C@@H](CCCNC(=N)N)C(=O)NC(Cc4ccc(O)cc4)C(N)=O)[C@@H](C)O)C(C)C)c(=O)c3c2)CC1` (stereo partly drawn) [Example 27], the EC50 on Y5R (setting [1]) is above 6000 nM; at hNPY2R (setting [2]), 9.6 nM.
On the same counts, the results for `CCCCCCCCCCCCCCCCCCCC(=O)NCCCCCC(=O)N[C@H](C(=O)N[C@@H](CCCCNC(=O)CCOCCOCCOCCOCCOCCOCCOCCOCCOCCOCCOCCOCCOCCOCCOCCOCCOCCOCCOCCOCCOCCOCCOCCOC)C(=O)N1CCN(c2ccc3ncn(CC(=O)N[C@@H](CCCNC(=N)N)C(=O)N[C@@H](Cc4c[nH]cn4)C(=O)N[C@@H](Cc4ccc(O)cc4)C(=O)N[C@@H](CC(C)C)C(=O)N[C@@H](CC(N)=O)C(=O)N[C@@H](Cc4c[nH]c5ccccc45)C(=O)N[C@H](C(=O)N[C@H](C(=O)N[C@@H](CCCNC(=N)N)C(=O)N[C@@H](CCC(N)=O)C(=O)N(C)[C@@H](CCCNC(=N)N)C(=O)N[C@@H](Cc4ccc(O)cc4)C(N)=O)[C@@H](C)O)C(C)C)c(=O)c3c2)CC1)[C@@H](C)CC` [Example 35] are 1010 nM and 0.097 nM.
Turning to `CCCCCCCCCCCCCCCCCCCC(=O)N[C@@H](CCS(=O)(=O)O)C(=O)N[C@@H](CCS(=O)(=O)O)C(=O)NCCCC[C@H](NC(=O)[C@@H](NC(=O)CCOCCOCCOCCOCCOCCOCCOCCOCCOCCOCCOCCOCCOCCOCCOCCOCCOCCOCCOCCOCCOCCOCCOCCOC)[C@@H](C)CC)C(=O)N1CCN(c2ccc3ncn(CC(=O)N[C@@H](CCCNC(N)=O)C(=O)NC(Cc4c[nH]cn4)C(=O)N[C@@H](Cc4ccc(O)cc4)C(=O)NC(CC(C)C)C(=O)N[C@@H](CC(N)=O)C(=O)NC(Cc4c[nH]c5ccccc45)C(=O)N[C@H](C(=O)N[C@H](C(=O)N[C@@H](CCCNC(=N)N)C(=O)NC(CCC(N)=O)C(=O)N(C)[C@@H](CCCNC(=N)N)C(=O)NC(Cc4ccc(O)cc4)C(N)=O)[C@@H](C)O)C(C)C)c(=O)c3c2)CC1` (stereo partly drawn) [Example 28], the EC50 on Y5R (setting [1]) worked out at 1320 nM; on hNPY2R (setting [2]) it was 11.1 nM.
`CC[C@H](C)[C@H](NC(=O)[C@H](CCC(=O)O)NC(=O)[C@H](CCC(=O)O)NC(=O)CCCCCCCCCCCCCCC(=O)O)C(=O)N[C@@H](CCCCNC(=O)CCOCCOCCOCCOCCOCCOCCOCCOCCOCCOCCOCCOCCOCCOCCOCCOC)C(=O)N1CCN(c2ccc3ncn(CC(=O)N[C@@H](CCCNC(=N)N)C(=O)N[C@@H](Cc4c[nH]cn4)C(=O)N[C@@H](Cc4ccc(O)cc4)C(=O)N[C@@H](CC(C)C)C(=O)N[C@@H](CC(N)=O)C(=O)N[C@@H](Cc4c[nH]c5ccccc45)C(=O)N[C@H](C(=O)N[C@H](C(=O)N[C@@H](CCCNC(=N)N)C(=O)N[C@@H](CCC(N)=O)C(=O)N(C)[C@@H](CCCNC(=N)N)C(=O)N[C@@H](Cc4ccc(O)cc4)C(N)=O)[C@@H](C)O)C(C)C)c(=O)c3c2)CC1` [Example 54]: the EC50 on Y5R (read-out: Y5R EC50 (nM) FLIPR; FLIPR) is above 6000 nM; at hNPY2R (read-out: Y2R EC50 (nM) FLIPR; CaFlux (FLIPR), HEK-293 cells with Gαqi9 and human NPY2 receptor), 292 nM.
For the molecule `CCCCCCCCCCCCCCCC(=O)N[C@@H](CCS(=O)(=O)O)C(=O)N[C@@H](CCS(=O)(=O)O)C(=O)NCCCC[C@H](NC(=O)[C@@H](NC(=O)CCOCCOCCOCCOCCOCCOCCOCCOCCOCCOCCOCCOCCOCCOCCOCCOCCOCCOCCOCCOCCOCCOCCOCCOC)[C@@H](C)CC)C(=O)N1CCN(c2ccc3ncn(CC(=O)N[C@@H](CCCNC(=N)N)C(=O)NC(Cc4c[nH]cn4)C(=O)N[C@@H](Cc4ccc(O)cc4)C(=O)NC(CC(C)C)C(=O)N[C@@H](CC(N)=O)C(=O)NC(Cc4c[nH]c5ccccc45)C(=O)N[C@H](C(=O)N[C@H](C(=O)N[C@@H](CCCNC(=N)N)C(=O)NC(CCC(N)=O)C(=O)N(C)[C@@H](CCCNC(=N)N)C(=O)NC(Cc4ccc(O)cc4)C(N)=O)[C@@H](C)O)C(C)C)c(=O)c3c2)CC1` (stereo partly drawn) [Example 29], the values for the EC50 on Y5R (setting [1]) and at hNPY2R (setting [2]) were above 6000 nM and 0.156 nM, respectively.
For the molecule `CC[C@H](C)[C@H](NC(C)=O)C(=O)N[C@@H](CCCCNC(=O)CCOCCOCCOCCOCCOCCOCCOCCOCCOCCOCCOCCOCCOCCOCCOCCOCCOCCOCCOCCOCCOCCOCCOCCOC)C(=O)N1CCN(c2ccc3ncn(CC(=O)N[C@@H](CCCNC(=N)N)C(=O)N[C@@H](Cc4c[nH]cn4)C(=O)N[C@@H](Cc4ccc(O)cc4)C(=O)N[C@@H](CC(C)C)C(=O)N[C@@H](CC(N)=O)C(=O)N[C@@H](Cc4c[nH]c5ccccc45)C(=O)N[C@H](C(=O)N[C@H](C(=O)N[C@@H](CCCNC(=N)N)C(=O)N[C@@H](CCC(N)=O)C(=O)N(C)[C@@H](CCCNC(=N)N)C(=O)N[C@@H](Cc4ccc(O)cc4)C(N)=O)[C@@H](C)O)C(C)C)c(=O)c3c2)CC1` [Example 21], the figures for the EC50 at Y5R (setting [1]) and at hNPY2R (setting [2]) were above 6000 nM and 0.139 nM, respectively.

What is called EC50 is the concentration giving half of the maximal effect.
